Laboratory results: patent US20260207623A1, “USE OF ESTETROL IN HEPATICALLY IMPAIRED PATIENTS” (ESTETRA SRL, priority 2022, published 2026)

Tested on: post-menopausal women
Test: Example 2 dose-finding study: weekly severity of moderate to severe VMS
Format: in vivo, human
Conditions: for LS adjusted mean change from baseline in weekly severity of moderate to severe VMS: week 12, ANCOVA
Excerpt: A severity scoring system to define the different severity categories of VMS is commonly used in the technical field: • a score of mild (1) for a sensation of heat without sweating; • a score of moderate (2) for a sensation of heat with sweating/the subject is able to continue activity; and • a score of severe (3) for a sensation of heat with sweating/which causes cessation of activity.
In addition, a severity score of zero is attributed to the patients who have experienced a 100% VMS relief during a given week. From these score records, the VMS severity at baseline is typically calculated by taking into account only moderate and severe VMS, such that the total number of moderate VMS during the 7 days of the baseline week is multiplied by 2 and added to the total number of severe VMS during the 7 days of the baseline week multiplied by 3. This total is then divided by the total number of moderate and severe VMS during the baseline week.
The severity at weeks 4 and 12 is calculated using the following formula for each of these weeks: • the number of mild VMS during 7 days multiplied by 1; • the number of moderate VMS during 7 days multiplied by 2; • the number of severe VMS during 7 days multiplied by 3; and adding the 3 resulting numbers together before dividing this total by the total number of mild, moderate and severe VMS during the 7 days of the week.
All treatments (Estetrol, hereinafter E4 as monohydrate, [2.5 mg, 5 mg, 10 mg, 15 mg] capsule) were administered once daily (QD) per os for at least 12 consecutive weeks until the last biological assessments (Day 91 maximum) had been performed.
In order to better analyse the data recorded in this study, treatment groups have been compared using an ANCOVA (analysis of covariance) with respect to the change in severity of moderate to severe VMS from baseline to mild, moderate and severe VMS at week 4 and week 12 for each active treatment versus placebo. For women who experienced 100% VMS relief at week 4 and/or week 12, a value of zero was attributed. The ANCOVA model includes treatment (“trt1”) as a fixed effect and baseline (“base”) as a covariate.

In the case of `C[C@]12CC[C@@H]3c4ccc(O)cc4CC[C@H]3[C@@H]1[C@@H](O)[C@@H](O)[C@@H]2O` [E4 monohydrate, estetrol monohydrate], the “Mean change from baseline in weekly severity of moderate to severe VMS” value (2.5 mg QD, week 0) was 0, the “Mean relative change (% from baseline) in weekly severity of moderate to severe VMS” value (“Mean relative change (% from baseline)” below) (2.5 mg QD, week 0) was 0% and the “Mean relative change (% from baseline)” value (2.5 mg QD, week 1) was −7%. For the same compound, the “Mean relative change (% from baseline)” value (2.5 mg QD, week 2) was −9%, the “Mean relative change (% from baseline)” value (2.5 mg QD, week 3) was −14% and the “Mean relative change (% from baseline)” value (2.5 mg QD, week 4) was −15%. For the same compound, the “Mean relative change (% from baseline)” value (2.5 mg QD, week 5) was −17%, the “Mean relative change (% from baseline)” value (2.5 mg QD, week 6) was −22% and the “Mean relative change (% from baseline)” value (2.5 mg QD, week 7) was −20%. For the same compound, the “Mean relative change (% from baseline)” value (2.5 mg QD, week 8) was −24%, the “Mean relative change (% from baseline)” value (2.5 mg QD, week 9) was −24% and the “Mean relative change (% from baseline)” value (2.5 mg QD, week 10) was −26%. The “Mean relative change (% from baseline)” value (2.5 mg QD, week 11) was −25%, the “Mean relative change (% from baseline)” value (2.5 mg QD, week 12) was −28% and the “Mean change from baseline in weekly severity of moderate to severe VMS” value (5 mg QD, week 0) was 0. For the same compound, the “Mean relative change (% from baseline)” value (5 mg QD, week 0) was 0%, the “Mean relative change (% from baseline)” value (5 mg QD, week 1) was −4% and the “Mean relative change (% from baseline)” value (5 mg QD, week 2) was −5%. The “Mean relative change (% from baseline)” value (5 mg QD, week 3) was −7%, the “Mean relative change (% from baseline)” value (5 mg QD, week 4) was −10% and the “Mean relative change (% from baseline)” value (5 mg QD, week 5) was −7%. For the same compound, the “Mean relative change (% from baseline)” value (5 mg QD, week 6) was −14%, the “Mean relative change (% from baseline)” value (5 mg QD, week 7) was −12% and the “Mean relative change (% from baseline)” value (5 mg QD, week 8) was −14%. The “Mean relative change (% from baseline)” value (5 mg QD, week 9) was −14%, the “Mean relative change (% from baseline)” value (5 mg QD, week 10) was −15% and the “Mean relative change (% from baseline)” value (5 mg QD, week 11) was −18%. For the same compound, the “Mean relative change (% from baseline)” value (5 mg QD, week 12) was −17%, the “Mean change from baseline in weekly severity of moderate to severe VMS” value (10 mg QD, week 0) was 0 and the “Mean relative change (% from baseline)” value (10 mg QD, week 0) was 0%. For the same compound, the “Mean relative change (% from baseline)” value (10 mg QD, week 1) was −8%, the “Mean relative change (% from baseline)” value (10 mg QD, week 2) was −13% and the “Mean relative change (% from baseline)” value (10 mg QD, week 3) was −17%. For the same compound, the “Mean relative change (% from baseline)” value (10 mg QD, week 5) was −21%, the “Mean relative change (% from baseline)” value (10 mg QD, week 6) was −26% and the “Mean relative change (% from baseline)” value (10 mg QD, week 7) was −27%. The “Mean relative change (% from baseline)” value (10 mg QD, week 8) was −28%, the “Mean relative change (% from baseline)” value (10 mg QD, week 9) was −28% and the “Mean relative change (% from baseline)” value (10 mg QD, week 10) was −29%. For the same compound, the “Mean relative change (% from baseline)” value (10 mg QD, week 11) was −25%, the “Mean relative change (% from baseline)” value (10 mg QD, week 12) was −28% and the “LS adjusted mean change from baseline in weekly severity of moderate to severe VMS” value (10 mg QD) was −0.6934. The “Mean change from baseline in weekly severity of moderate to severe VMS” value (15 mg QD, week 0) was 0, the “Mean relative change (% from baseline)” value (15 mg QD, week 0) was 0% and the “Mean relative change (% from baseline)” value (15 mg QD, week 1) was −3%. For the same compound, the “Mean relative change (% from baseline)” value (15 mg QD, week 2) was −12%, the “Mean relative change (% from baseline)” value (15 mg QD, week 3) was −20% and the “Mean relative change (% from baseline)” value (15 mg QD, week 4) was −24%. For the same compound, the “Mean relative change (% from baseline)” value (15 mg QD, week 5) was −31%, the “Mean relative change (% from baseline)” value (15 mg QD, week 6) was −30% and the “Mean relative change (% from baseline)” value (15 mg QD, week 7) was −34%. For the same compound, the “Mean relative change (% from baseline)” value (15 mg QD, week 8) was −37%, the “Mean relative change (% from baseline)” value (15 mg QD, week 9) was −38% and the “Mean relative change (% from baseline)” value (15 mg QD, week 10) was −40%. For the same compound, the “Mean relative change (% from baseline)” value (15 mg QD, week 11) was −42%, the “Mean relative change (% from baseline)” value (15 mg QD, week 12) was −44% and the “LS adjusted mean change from baseline in weekly severity of moderate to severe VMS” value (15 mg QD) was −1.042.
